Reference: patent US20080051454A1, “Compositions and methods for transient receptor potential vanilloid (TRPV) channel mediated treatments” (The Board of Trustees Operating Michigan State University, priority 2006, published 2008)

Tests used:
renal cortex and medulla = test: Neonatal capsaicin treatment plus NS or HS diet: renal superoxide, SOD and NAD(P)H oxidase subunits; set-up: species or system rat
Experimental: Enhanced oxidative stress in kidneys of salt-sensitive hypertension: role of sensory nerves (Am J Physiol Heart Circ Physiol 291: H3136-H3143, 2006). To determine the mechanism(s) underlying enhanced oxidative stress in kidneys of salt-sensitive hypertension, neonatal Wistar rats were given vehicle or capsaicin (CAP, 50 mg/kg sc) on the first and second days of life. After being weaned, male rats were assigned into four groups and treated for 2 wk with the following: vehicle+a normal sodium diet (NS, 0.4%, CON-NS), vehicle+a high-sodium diet (HS, 4%, CON-HS), CAP+NS (CAP−NS), and CAP+HS (CAP−HS). […] Plasma and urinary 8-iso-prostaglandin F2alpha levels increased by approximately 40% in CON-HS and CAP−HS rats compared with their respective controls fed a NS diet (P≦0.05), and these parameters were higher in CAP−HS compared with CON-HS rats. Superoxide (O2—) levels in the renal cortex and medulla increased by approximately 45% in CAP−HS compared with CON-HS, CON-NS, and CAP−NS rats (P≦0.05). […]

WT and TRPV1−/− hearts = test: OLDA-induced CGRP and SP release from hearts (radioimmunoassay); set-up: species or system mouse
[1] = tested on: Wistar rats (Con-NS, Con-HS, Cap-NS, Cap-HS); test: Natriuretic, diuretic and depressor effects of i.v. diuretics in control and capsaicin-pretreated rats on normal or high sodium diet; type: in vivo, rat; details: intravenous
Experimental: (a) Urine flow rate. (b) Urine sodium excretion. […] (c) Mean arterial pressure. […] Vehicle; trichlormethiazide.
(a) Urine flow rate. (b) Urine sodium excretion. […] (c) Mean arterial pressure.
(a) Urine flow rate. (b) Urine sodium excretion. […] (c) Mean arterial pressure. […] Vehicle; amiloride.
Design and methods Neonatal Wistar rats were treated with capsaicin or vehicle. Seven-week-old male rats were treated for 2 weeks with: vehicle plus a normal (Con-NS) or high (Con-HS) sodium diet, and capsaicin pretreatment plus a normal (Cap-NS) or high (Cap-HS) sodium diet. Mean arterial pressure (MAP), renal excretory function, and protein expression determined by Western blot were performed.

[2] = tested on: high-salt plus capsaicin pretreated rats; details: rat, in vivo; cited from earlier work
TRPV1−/− hearts = test: Preconditioning (PC) protection against I/R in Langendorff hearts with receptor antagonists, TRPV1-null; set-up: species or system mouse; details: CAPZ 10^−7 M, CGRP8-37 10^−6 M, RP67580 10^−7 M
Experimental: Male TRPV1 gene knockout (TRPV1-/-) strain B6.129S[…][…]^tm1Jul and matching control wild type (WT) strain C57BL/6J mice were used (Jackson Laboratory, Bar Harbor, Me.). Mice were heparinized (500 U/kg i.p.) and anesthetized with pentobarbital sodium (50 mg/kg i.p.). […] The distal end of the catheter was connected to a […] Performance Analyzer via a pressure transducer. Coronary flow (CF) was continuously measured using an ultrasonic flow probe placed in the aortic perfusion line. Hearts were paced at 400 bpm except during ischemic PC and sustained global ischemia to avoid inducing excessive ventricular tachyarrhythmia during reperfusion, and pacing was reinitiated 2 minutes after reperfusion. Left ventricular developed pressure (LVDP, peak systolic minuses LVEDP) and LV peak positive […]) during isovolumic contraction were used as indices of LV systolic function; LVEDP and the peak negative […] used as indices of LV diastolic function. […] Non-preconditioned hearts were time-matched perfused with the same duration as that of preconditioned hearts. Group 1: Controls. As normal controls (nonischemic), WT and TRPV1-/- hearts were perfused for 130 minutes. For I/R controls, WT and TRPV1-/- hearts were first perfused with Krebs-Henseleit buffer for 55 min (time-matched perfusion of the equilibration period plus the PC period), and subsequently subjected to 30 minutes of no-flow normothermic global ischemia followed by 40-minutes of reperfusion. Group 2: PC. […] The hearts were subjected to 30 minutes of no-flow normothermic global ischemia followed by 40-minutes of reperfusion as that of I/R control groups. Group 3: PC plus capsazepine (CAPZ). […] Two additional concentrations of CAPZ, 10^-6M and 10^-8 M, were used in WT hearts. An additional drug control was added. After a 20-minute equilibration period, WT hearts were perfused with CAPZ (10^-7 M) for 10 minutes without PC, followed by perfusion with Krebs-Henseleit buffer for 25 minutes (time-matched perfusion of the PC period) and then subjected to I/R. Group 4: […] […]

[3] = tested on: Wistar rats fed a NS or HS diet for 10 days; test: MAP responses to i.v. capsaicin with or without CAPZ in urethane-anesthetized rats; type: in vivo, rat; details: CGRP8-37 infusion; capsaicin 30 μg/kg
Experimental: (§1) Surgical Preparation Rats were anesthetized with ketamine and xylazine (80 and 4 mg/kg intraperitoneally, respectively) for cannulation or with urethane (1.5 g/kg intraperitoneally) for capsaicin administration. The left jugular vein, carotid and femoral artery were cannulated under anesthesia for injection of drugs or monitoring of mean arterial pressure (MAP) and heart rate (HR).
Each dose of injection was separated by a 30-minute interval. To determine the specificity of capsaicin, CAPZ (3 mg/kg) was administered 10 minutes before capsaicin injection in a separate group.

WT hearts [4] = test: Lactate dehydrogenase (LDH) release during I/R; set-up: species or system mouse
Experimental: Lactate dehydrogenase (LDH) release: In addition to the measurement of cardiac function, cardiac injury was assessed by measuring LDH release. Perfusion effluent was collected during the first 10 minutes to 20 minutes of I/R and stored at […] until analyzed. Total LDH levels were determined with the use of a CytoTox 96 assay (Promega). The data were expressed as absorbance units released per milliliter per minute per gram of heart wet tissues (Turnbull et al., Am J Physiol Heart Circ Physiol 290: […]-9, 2006; herein incorporated by reference).

[5] = tested on: Wistar rats fed a normal-salt (NS) or high-salt (HS) diet for 10 days; test: MAP and HR responses to i.v. bolus NADA with or without antagonists in conscious rats; type: in vivo, rat; details: for prolonged depressor effect of NADA (decrease in MAP) after antagonist: NADA 4 mg/kg after CAPZ 3 mg/kg, CGRP8-37 infusion or SR141716A 3 mg/kg
From the text: In brief: Wistar rats were fed a normal (NS, 0.4%) or high (HS, 4%) sodium diet for 10 days, then artery and vein were cannulated for measurement of mean arterial pressure (MAP) or for injection of drugs and collection of plasma.
Animal Preparation: Male Wistar rats (7 weeks old, Charles River Laboratory, Wilmington, Mass.) were housed in the animal facility for 1 week before the experiment. Rats were grouped randomly and pair-fed a NS (0.4% of Na^+ by weight) or HS (4% of Na^+ by weight) diet for 10 days. The rat chow was purchased from Harlan Teklad Diets (Madison, Wis.). Drinking water was available ad libitum throughout the experiment. All protocols were in accordance with the National Institutes of Health Guidelines for the Care and Use of Laboratory Animals.
as §1
Three hours after surgery, baseline MAP and its response to the above-mentioned drugs were obtained with the rats fully awake and unrestrained [Wang et al., Am J Physiol 2004; 287:H1868-H[874]. NADA was injected in increasing doses (1, 4, and 10 mg/kg intravenous bolus) in 3 subgroups of rats (each group for each dose). To determine the role of TRPV1 and CB 1 receptor in NADA-induced hypotension, NADA (4 mg/kg) was injected 10 minutes or 20 minutes after intravenous injection of CAPZ (3 mg/kg) or SR141716A (3 mg/kg), respectively.
To examine the effect of CGRP8-37 on NADA-induced hypotension, CGRP8-37 was intravenously administered at the rate of 1 mg/kg/min for 2 minutes followed by injection at the rate of 0.5 mg/kg/min for 15 minutes. NADA (4 mg/kg) was injected 1 minute after CGRPs-37 administration. The effectiveness of the dose and time frame for CGRP8-37 injection was verified by blockade of the hypotensive response to capsaicin (30 μg/kg) (n=5).

hearts of WT mice = test: Langendorff perfused heart, ischemia and reperfusion (I/R) with OLDA, wild type; set-up: species or system mouse; details: antagonist 1×10^−6 M
Experimental: The following measurements were made on the two types of heart tissue: left ventricular end-diastolic pressure (LVEDP), left ventricular developed pressure (LVDP), coronary flow (CF), and left ventricular (LV) peak positive rate of pressure change/rate of time change (+dP/dt) were evaluated after I/R.

WT hearts [6] = test: Preconditioning (PC) protection against I/R in Langendorff hearts with receptor antagonists, wild type; set-up: species or system mouse
Experimental: Male TRPV1 gene knockout (TRPV1-/-) strain B6.129S[…][…]^tm1Jul and matching control wild type (WT) strain C57BL/6J mice were used (Jackson Laboratory, Bar Harbor, Me.). Mice were heparinized (500 U/kg i.p.) and anesthetized with pentobarbital sodium (50 mg/kg i.p.). […] The distal end of the catheter was connected to a […] Performance Analyzer via a pressure transducer. Coronary flow (CF) was continuously measured using an ultrasonic flow probe placed in the aortic perfusion line. Hearts were paced at 400 bpm except during ischemic PC and sustained global ischemia to avoid inducing excessive ventricular tachyarrhythmia during reperfusion, and pacing was reinitiated 2 minutes after reperfusion. Left ventricular developed pressure (LVDP, peak systolic minuses LVEDP) and LV peak positive […]) during isovolumic contraction were used as indices of LV systolic function; LVEDP and the peak negative […] used as indices of LV diastolic function. […] Non-preconditioned hearts were time-matched perfused with the same duration as that of preconditioned hearts. Group 1: Controls. As normal controls (nonischemic), WT and TRPV1-/- hearts were perfused for 130 minutes. For I/R controls, WT and TRPV1-/- hearts were first perfused with Krebs-Henseleit buffer for 55 min (time-matched perfusion of the equilibration period plus the PC period), and subsequently subjected to 30 minutes of no-flow normothermic global ischemia followed by 40-minutes of reperfusion. Group 2: PC. […] The hearts were subjected to 30 minutes of no-flow normothermic global ischemia followed by 40-minutes of reperfusion as that of I/R control groups. Group 3: PC plus capsazepine (CAPZ). […] Two additional concentrations of CAPZ, 10^-6M and 10^-8 M, were used in WT hearts. An additional drug control was added. After a 20-minute equilibration period, WT hearts were perfused with CAPZ (10^-7 M) for 10 minutes without PC, followed by perfusion with Krebs-Henseleit buffer for 25 minutes (time-matched perfusion of the PC period) and then subjected to I/R. Group 4: […] Two additional concentrations of CGRP8-37, 10^-5 M and 10^-7 M, were used in WT hearts. An additional drug control of CGRP8-37 was added as that of the CAPZ control group. Group 5: PC plus RP67580. To determine the role of endogenous SP during PC, hearts from WT and TRPV1-/-mice were perfused as that of CAPZ with RP67580 (10^-7 M), a selective neurokinin-1 (NK1) receptor antagonist. Two additional concentrations of RP67580, 10^-6 M and 10^-8 M, were used in WT hearts. An additional drug control of RP67580 was added as that of the CAPZ control group.

male Wistar rats = test: Depressor effect of 20-HETE analog DSR given IV, with or without antagonists; type: in vivo, rat; details: DSR 1 mg/kg with CAPZ 3 mg/kg, RP67580 4 mg/kg or CGRP 8-37 3 mg/kg

COc1cc(C(C)=O)ccc1O [apocynin]
O2— production in renal cortex after ex vivo incubation (renal cortex and medulla; apocynin 0.1 mM, CAP−HS rats): 2.83 0.38 nmol_min—1_mg dry wt—1
O2— production in renal medulla after ex vivo incubation (renal cortex and medulla; apocynin 0.1 mM, CAP−HS rats): 1.73 0.23 nmol_min—1_mg dry wt—1
effect on O2— production (renal cortex and medulla; apocynin, CON-HS, CON-NS and CAP−NS rats): no significant effects
effect on enhanced O2— levels in cortex and medulla of CAP−HS rats (renal cortex and medulla; preincubation of renal tissues with apocynin): prevented

COc1ccc2c(c[n+](C)c3c4cc5c(cc4ccc23)OCO5)c1OC [chelerythrine]
effect on OLDA-increased CGRP and SP release in WT hearts (WT and TRPV1−/− hearts): blocked

NS(=O)(=O)c1cc(C(=O)O)c(NCc2ccco2)cc1Cl [furosemide]
effect on MAP (words) [1]: decreased MAP in Cap-HS but not in Cap-NS, Con-NS, and Con-HS rats
time of peak urine flow rate (UFR) after injection [1]: 5 min
effect on MAP (words) ([1]; listed as Furosemide): decreased MAP in Cap-HS rats only

CCCCc1nc(Cl)c(CO)n1Cc1ccc(-c2ccccc2-c2nn[nH]n2)cc1 [losartan]
effect on the impaired natriuretic response [2]: unable to prevent
prevention of the development of salt-induced hypertension [2]: prevented

NS(=O)(=O)c1cc2c(cc1Cl)NC(C(Cl)Cl)NS2(=O)=O (stereo not shown) [trichlormethiazide]
effect on MAP (words) [1]: decreased MAP in Cap-HS but not in Cap-NS, Con-NS, and Con-HS rats
time of peak urine flow rate (UFR) after injection [1]: 10 min
urine flow / urine sodium excretion (words) [1]: significantly increased
effect on MAP (words) ([1]; listed as Trichlormethiazide): decreased MAP in Cap-HS rats only
urine flow / urine sodium excretion (words) ([1]; listed as Trichlormethiazide): increased

CGRP8-37: selective calcitonin gene-related peptide (CGRP) receptor antagonist peptide
effect on these parameters in TRPV1−/− hearts (TRPV1−/− hearts): no effect
effect on hypotensive response to capsaicin [3]: blockade
effect on PC protection assessed by LDH levels after I/R in WT hearts (WT hearts [4]): abolished
effect of antagonist on NADA-induced depressor effect ([5]; NADA 4 mg/kg): abolished
prolonged depressor effect of NADA (decrease in MAP) after antagonist ([5]; HS diet): 6±3 mmHg
prolonged depressor effect of NADA (decrease in MAP) after antagonist ([5]; NS diet): 5±2 mmHg
effect on protective effect of OLDA in WT hearts (hearts of WT mice): abolished
effect on cardiac function in WT hearts without I/R (WT hearts [6]): no effect on cardiac function
effect on PC-induced cardiac protection (LVEDP, LVDP, CF, +dP/dt, −dP/dt) in WT hearts (WT hearts [6]; CAPZ 10^−7 M, CGRP8-37 10^−6 M, RP67580 10^−7 M): blocked PC-induced cardioprotective effects
DSR induced-depressor effect after antagonist (male Wistar rats): 9.3±3.3 mmHg
